Laboratory results taken from the NIST ThermoML archive (doi:10.1021/je060271a).
“And” between values parts separate entries of the source, which are not always exact repeats. Identical values can stand only once.

Conditions: 283.15 K, Liquid, Vibrating tube method

CCCCCC(=O)OCC(COC(=O)CCCCC)(COC(=O)CCCCC)COC(=O)CCCCC [pentaerythritol tetrahexanoate]
Conditions	mass density
15225 kPa	1012.8 kg/m3
15241 kPa	1012.9 kg/m3
15260 kPa	1012.8 kg/m3
15276 kPa	1012.7 kg/m3
15292 kPa	1012.8 kg/m3
15311 kPa	1012.8 kg/m3
15327 kPa	1013 kg/m3
15343 kPa	1012.8 kg/m3
15363 kPa	1012.9 kg/m3
15379 kPa	1013.1 kg/m3
15395 kPa	1012.9 kg/m3
15412 kPa	1013 kg/m3
15432 kPa	1012.9 kg/m3
15448 kPa	1012.9 kg/m3
15467 kPa	1013.1 kg/m3
15483 kPa	1013.1 kg/m3
15500 kPa	1013.1 kg/m3
15519 kPa	1012.8 kg/m3
15536 kPa	1013.1 kg/m3
15552 kPa	1012.9 kg/m3
15572 kPa	1013 kg/m3
15589 kPa	1013 kg/m3
15606 kPa	1013 kg/m3
15626 kPa	1013 kg/m3
15642 kPa	1013.1 kg/m3
15659 kPa	1012.9 kg/m3
15679 kPa	1013 kg/m3
15696 kPa	1013.1 kg/m3
15713 kPa	1013.1 kg/m3
15733 kPa	1013 kg/m3
15750 kPa	1013.1 kg/m3
15767 kPa	1013.1 kg/m3
15788 kPa	1013 kg/m3
15805 kPa	1013.2 kg/m3
15823 kPa	1013.2 kg/m3
15841 kPa	1013.2 kg/m3
15861 kPa	1013.1 kg/m3
15878 kPa	1013.2 kg/m3
16066 kPa	1013.4 kg/m3
16083 kPa	1013.3 kg/m3
16104 kPa	1013.4 kg/m3
16122 kPa	1013.3 kg/m3
16139 kPa	1013.3 kg/m3
16157 kPa	1013.3 kg/m3
16178 kPa	1013.2 kg/m3
16195 kPa	1013.3 kg/m3
16214 kPa	1013.4 kg/m3
16230 kPa	1013.4 kg/m3
16247 kPa	1013.2 kg/m3
16266 kPa	1013.4 kg/m3
16282 kPa	1013.4 kg/m3
16299 kPa	1013.5 kg/m3
16315 kPa	1013.4 kg/m3
16334 kPa	1013.3 kg/m3
16351 kPa	1013.4 kg/m3
16368 kPa	1013.6 kg/m3
16388 kPa	1013.5 kg/m3
16404 kPa	1013.4 kg/m3
16421 kPa	1013.5 kg/m3
16441 kPa	1013.4 kg/m3
16457 kPa	1013.5 kg/m3
16474 kPa	1013.5 kg/m3
16491 kPa	1013.6 kg/m3
16511 kPa	1013.5 kg/m3
16528 kPa	1013.6 kg/m3
16545 kPa	1013.6 kg/m3
16565 kPa	1013.7 kg/m3
16582 kPa	1013.5 kg/m3
16598 kPa	1013.5 kg/m3
16619 kPa	1013.6 kg/m3
16636 kPa	1013.6 kg/m3
16653 kPa	1013.6 kg/m3
16673 kPa	1013.6 kg/m3
16690 kPa	1013.7 kg/m3
16707 kPa	1013.6 kg/m3
16727 kPa	1013.6 kg/m3
16745 kPa	1013.6 kg/m3
16762 kPa	1013.6 kg/m3
16782 kPa	1013.6 kg/m3
16800 kPa	1013.6 kg/m3
16817 kPa	1013.7 kg/m3
16837 kPa	1013.7 kg/m3
16854 kPa	1013.6 kg/m3
16872 kPa	1013.7 kg/m3
16893 kPa	1013.7 kg/m3
16911 kPa	1013.8 kg/m3
16929 kPa	1013.8 kg/m3
16951 kPa	1013.7 kg/m3
16969 kPa	1013.8 kg/m3
16988 kPa	1013.8 kg/m3
17008 kPa	1013.8 kg/m3
17031 kPa	1013.9 kg/m3
17050 kPa	1013.8 kg/m3
17097 kPa	1013.8 kg/m3
17099 kPa	1013.9 kg/m3
17100 kPa	1013.9 kg/m3
17101 kPa	1013.7 kg/m3
17113 kPa	1013.8 kg/m3
17138 kPa	1013.8 kg/m3
17147 kPa	1013.8 kg/m3
17148 kPa	1013.8 kg/m3 and 1014 kg/m3
17156 kPa	1013.8 kg/m3
17174 kPa	1013.8 kg/m3
17193 kPa	1013.9 kg/m3
17211 kPa	1013.9 kg/m3
17233 kPa	1013.8 kg/m3
17252 kPa	1013.9 kg/m3
17270 kPa	1014 kg/m3
17291 kPa	1013.9 kg/m3
17309 kPa	1013.8 kg/m3
17331 kPa	1014 kg/m3
17350 kPa	1013.9 kg/m3
17373 kPa	1013.9 kg/m3
17392 kPa	1014 kg/m3
17411 kPa	1014.1 kg/m3
17430 kPa	1014 kg/m3
17453 kPa	1014.1 kg/m3
17472 kPa	1014 kg/m3
17491 kPa	1014.1 kg/m3
17514 kPa	1014.1 kg/m3
17534 kPa	1014.1 kg/m3
17555 kPa	1014 kg/m3
17574 kPa	1014.1 kg/m3
17593 kPa	1014.1 kg/m3
17616 kPa	1014.1 kg/m3
17635 kPa	1014.1 kg/m3
17656 kPa	1014 kg/m3
17672 kPa	1014.2 kg/m3
17688 kPa	1014.2 kg/m3
17708 kPa	1014 kg/m3
17723 kPa	1014.2 kg/m3
17739 kPa	1014.3 kg/m3
17758 kPa	1014.2 kg/m3
17775 kPa	1014.2 kg/m3
17791 kPa	1014.2 kg/m3
17807 kPa	1014.3 kg/m3
17827 kPa	1014.2 kg/m3
17843 kPa	1014.2 kg/m3
17861 kPa	1014.3 kg/m3
17877 kPa	1014.2 kg/m3
17892 kPa	1014.2 kg/m3
17907 kPa	1014.3 kg/m3
17925 kPa	1014.3 kg/m3
17939 kPa	1014.3 kg/m3
